Reference: PMC6434714 (Journal of natural products, 2018)
Converted amounts (≈) assume the structure as drawn.

Columns and labels:
[1] = target: A. aeolicus MraY (AaMraY) (Aquifex aeolicus, UniProt O66465); test: Fluorescence-based in vitro MraY assay, A. aeolicus MraY; assay type: biochemical
[2] = test system: S. aureus subsp. aureus (Newman strain); test: Antimicrobial activity; details: for activity against S. aureus (in words): growth inhibition
[3] = test system: Staphylococcal; details: cited from earlier work
[4] = test system: E. coli imp mutant; details: cited from earlier work
[5] = test system: S. aureus; details: cited from earlier work

A. aeolicus MraY (AaMraY), sequence (O66465 whole entry): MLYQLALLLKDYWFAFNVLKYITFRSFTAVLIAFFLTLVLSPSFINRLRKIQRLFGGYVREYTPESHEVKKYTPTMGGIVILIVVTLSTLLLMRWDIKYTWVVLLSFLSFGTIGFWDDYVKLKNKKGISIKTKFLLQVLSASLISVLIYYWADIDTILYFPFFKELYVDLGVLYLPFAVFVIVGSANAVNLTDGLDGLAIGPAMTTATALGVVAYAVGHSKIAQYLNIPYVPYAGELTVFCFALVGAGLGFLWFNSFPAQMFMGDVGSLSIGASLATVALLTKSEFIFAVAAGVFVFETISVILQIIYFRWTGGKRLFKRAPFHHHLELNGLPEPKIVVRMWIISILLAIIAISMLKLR

CO[C@H]1[C@H](O[C@H]([C@H]2O[C@@H](n3ccc(=O)[nH]c3=O)[C@H](O)[C@@H]2O)[C@H](NCCCNC(=O)[C@@H](NC(=O)[C@@H](NC(=O)N[C@H](C(=O)O)C(C)C)[C@@H]2CCNC(=N)N2)[C@@H](OC(=O)CCCCCCCCCCCCC(C)C)C(C)C)C(=O)O)O[C@H](CN)[C@H]1O [Compound 1, muraymycin B8]
IC50 [1]: 0.068 nM | MIC ([2]; Staphylococcus aureus, NEWMAN, 16 h, read-out: S. aureus growth inhibition MIC, Newman strain, 37 °C, 16 h): 2 to 6 µg/mL (≈ 1.69 to 5.07 µM)

CO[C@H]1[C@H](O[C@H]([C@H]2O[C@@H](n3ccc(=O)[nH]c3=O)[C@H](O)[C@@H]2O)[C@H](NCCCNC(=O)[C@@H](NC(=O)[C@@H](NC(=O)N[C@H](C(=O)O)C(C)C)[C@@H]2CCNC(=N)N2)[C@@H](OC(=O)CCCCCCCCCCC(C)C)C(C)C)C(=O)O)O[C@H](CN)[C@H]1O [Compound 2, muraymycin B9]
S. aureus growth inhibition MIC ([2]; Newman strain, 37 °C, 16 h): 2 to 6 µg/mL

CO[C@H]1[C@H](O[C@H]([C@H]2O[C@@H](n3ccc(=O)[nH]c3=O)[C@H](O)[C@@H]2O)[C@H](NCCCNC(=O)[C@@H](NC(=O)[C@@H](NC(=O)N[C@H](C(=O)O)C(C)C)[C@@H]2CCNC(=N)N2)[C@@H](O)C(C)C)C(=O)O)O[C@H](CNC(C)=O)[C@H]1O [Compound 3, 16-N-acetyl-muraymycin C1]
activity against S. aureus (in words) [2]: inactive

CO[C@H]1[C@H](O[C@H]([C@H]2O[C@@H](n3ccc(=O)[nH]c3=O)[C@H](O)[C@@H]2O)[C@H](NCCCNC(=O)[C@@H](NC(=O)[C@@H](NC(=O)N[C@H](C(=O)O)C(C)C)[C@@H]2CCNC(=N)N2)[C@@H](OC(=O)CCCCCCCCCCCCN(O)C(=N)N)C(C)C)C(=O)O)O[C@H](CN)[C@H]1O [Muraymycin A1]
MIC against Staphylococcal [3]: 2 to 16 µg/mL | MIC against E. coli imp mutant [4]: < 0.03 µg/mL

CO[C@H]1[C@H](O[C@H]([C@H]2O[C@@H](n3ccc(=O)[nH]c3=O)[C@H](O)[C@@H]2O)[C@H](NCCCNC(=O)[C@@H](NC(=O)[C@@H](NC(=O)N[C@H](C(=O)O)C(C)C)[C@@H]2CCN=C(N)N2)[C@@H](OC(=O)CCCCCCC(C)C)C(C)C)C(=O)O)O[C@H](CN)[C@H]1O [muraymycin B2]
MIC against S. aureus [5]: > 32 µg/mL

CO[C@H]1[C@H](O[C@H]([C@H]2O[C@@H](n3ccc(=O)[nH]c3=O)[C@H](O)[C@@H]2O)[C@H](NCCCNC(=O)[C@@H](NC(=O)[C@@H](NC(=O)N[C@H](C(=O)O)C(C)C)[C@@H]2CCN=C(N)N2)[C@@H](OC(=O)CCCCC(C)C)C(C)C)C(=O)O)O[C@H](CN)[C@H]1O [muraymycin B6]
MIC against S. aureus [5]: > 32 µg/mL

CO[C@H]1[C@H](O[C@H]([C@H]2O[C@@H](n3ccc(=O)[nH]c3=O)[C@H](O)[C@@H]2O)[C@H](NCCCNC(=O)[C@@H](NC(=O)[C@@H](NC(=O)N[C@H](C(=O)O)C(C)C)[C@@H]2CCNC(=N)N2)[C@@H](O)C(C)C)C(=O)O)O[C@H](CN)[C@H]1O [muraymycin C1]
activity against S. aureus (in words) [2]: inactive
